Data from PubChem BioAssay (NCI).
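These data come from cells grown in 96-well plates and exposed to compound for 48 hours at five concentrations. At the GI50, growth is halved. The concentration for full growth arrest is given as TGI.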

Key:
Assay in all cases: NCI anticancer screen, dose series, 48 h
786-0 renal = test system: 786-0 renal
NCI-H460 lung = test system: NCI-H460 lung
OVCAR-4 ovarian = test system: OVCAR-4 ovarian
SF-295 CNS = test system: SF-295 CNS
SK-MEL-2 melanoma = test system: SK-MEL-2 melanoma
SK-MEL-5 melanoma = test system: SK-MEL-5 melanoma
COLO 205 colon = test system: COLO 205 colon
HOP-92 NSCLC = test system: HOP-92 NSCLC
RXF 393 renal = test system: RXF 393 renal

| Compound | GI50 (786-0 renal) [µM] | TGI (786-0 renal) [µM] | GI50 (NCI-H460 lung) [µM] | TGI (NCI-H460 lung) [µM] | GI50 (OVCAR-4 ovarian) [µM] | TGI (OVCAR-4 ovarian) [µM] | GI50 (SF-295 CNS) [µM] | TGI (SF-295 CNS) [µM] | GI50 (SK-MEL-2 melanoma) [µM] | TGI (SK-MEL-2 melanoma) [µM] | GI50 (SK-MEL-5 melanoma) [µM] | TGI (SK-MEL-5 melanoma) [µM] | TGI (COLO 205 colon) [µM] | TGI (HOP-92 NSCLC) [µM] | TGI (RXF 393 renal) [µM] | GI50 (COLO 205 colon) [µM] |
| --- | --- | --- | --- | --- | --- | --- | --- | --- | --- | --- | --- | --- | --- | --- | --- | --- |
| CC(=O)[CH-]C(=O)c1ccccc1.CC(=O)[CH-]C(=O)c1ccccc1.O=S(=O)([O-])c1cc([O-])c2c([O-])cc(S(=O)(=O)[O-])cc2c1.[Na+].[Zr+4] | 70.8 | > 100 | 94.1 | > 100 | > 100 | > 100 | 69.8 | > 100 | > 100 | > 100 | > 100 | > 100 | – | – | – | – |
| Cc1cccc(C)c1N1C(=O)C(=O)C(c2nc3ccccc3s2)/C(=N\N)C1=O (configuration not stated) | – | > 100 | – | > 100 | – | > 100 | – | > 100 | – | > 100 | – | > 100 | > 100 | > 100 | – | – |
| O=C(/C=C/c1cccc([N+](=O)[O-])c1)c1ccc([N+](=O)[O-])cc1 | – | > 100 | – | > 100 | – | > 100 | – | > 100 | – | > 100 | – | > 100 | > 100 | – | > 100 | – |
| COC(=O)[C@@H]1Cc2c([nH]c3ccccc23)[C@H](c2ccccc2)N1 | – | > 100 | – | > 100 | – | > 100 | – | 64.4 | – | 82.8 | – | 63.4 | 38.6 | > 100 | – | – |
| O=c1c(Cl)c(Cl)cnn1CCCl | – | 25.3 | – | 23.1 | – | 3.14 | – | 31.4 | – | – | – | 15.2 | 7.69 | 3.48 | 4.74 | – |
| COC1(OC)C2(Cl)C(Cl)=C(Cl)C1(Cl)C1C2C2CC1(C(=O)O)c1ccccc12 (configuration not stated) | – | 31.6 | – | 47.8 | – | 34.6 | – | 56.8 | – | – | – | 30.5 | 51.1 | 93.4 | – | – |
| O=C(Nc1ccc(Cl)cc1Cl)OC(Cn1cncn1)c1ccc(Cl)cc1Cl (configuration not stated) | – | 33.5 | – | – | – | 28 | – | 31.4 | – | 33.7 | – | 30.7 | 31.5 | – | 30.9 | – |
| Cn1cc2ccccc2c1-c1nc(F)nc(Oc2ccc3c(c2)CC[C@@H]2C3CC[C@@]3(C)C2C[C@H](O)[C@@H]3O)n1 (some centres not stated) | – | 31.3 | – | 83 | – | – | – | 33.9 | – | 38.1 | – | 36.8 | 32.4 | 55.5 | 66.6 | – |
| O=C(/C=C\c1cccc2ccccc12)c1ccc(Cl)cc1Cl | – | 33.1 | – | 51.6 | – | > 100 | – | 49.9 | – | – | – | > 100 | 45.5 | – | – | – |
| COC1OC2COC(C)(C)OC2C(OC(C)=O)C1NC(=O)N(CCCl)N=O (configuration not stated) | – | > 100 | – | > 100 | – | > 100 | – | > 100 | – | > 100 | – | > 100 | > 100 | – | > 100 | – |
| O=C(Nc1ccc(Cl)c(Cl)c1)C(=O)C(C(=O)c1ccccc1-c1ccccc1)C1OC(=O)c2ccccc21 (configuration not stated) | – | 25.6 | – | 62.6 | – | – | – | 73.6 | – | 24.7 | – | 30.3 | 30.2 | 30.2 | 21.5 | – |
| CN(/N=C\c1ccnc2ccccc12)c1ccc([N+](=O)[O-])cc1 | – | > 100 | – | – | – | – | – | > 100 | – | > 100 | – | > 100 | > 100 | > 100 | – | – |
| COC(=O)C1C(=O)O[C@@H](c2cc(OC)c(OC)cc2OC)C1C(=O)OC (mixture of isomers) | – | > 100 | – | > 100 | – | > 100 | – | > 100 | – | – | – | > 100 | > 100 | > 100 | > 100 | – |
| CNS(=O)(=O)NNS(=O)(=O)c1ccc(OC)cc1 | – | > 100 | – | > 100 | – | > 100 | – | > 100 | – | > 100 | – | > 100 | > 100 | – | > 100 | – |
| Cc1cc(C)c(-c2noc(-c3ccc(Cl)cc3)c2C2=NCCCN2)c(C)c1 | – | 26.5 | – | 28.8 | – | > 100 | – | 25.4 | – | 49.9 | – | 24.2 | 35.1 | – | 48.5 | – |
| Cc1nc2c(o1)C(=Nc1ccccc1)c1nc(C)oc1C2=Nc1ccccc1 | – | 34.2 | – | > 100 | – | – | – | 46.7 | – | 72.6 | – | 2.34 | > 100 | 44.1 | 37.5 | – |
| Clc1cccc(-c2nnc(-c3nn(-c4ccccc4)c4nc5ccccc5nc34)o2)c1 | – | > 100 | – | > 100 | – | > 100 | – | > 100 | – | > 100 | – | > 100 | > 100 | – | > 100 | – |
| Cc1cc(=O)n(-c2cc3cccccc-3n2)[nH]1 | – | 18 | – | 16.1 | – | – | – | > 100 | – | – | – | 5.32 | 43.6 | – | 11.2 | – |
| N/N=C(/Cc1nc2ccc(C(=O)c3ccccc3)cc2[nH]c1=O)C(=O)Nc1ccc([N+](=O)[O-])cc1[N+](=O)[O-] | – | > 100 | > 100 | > 100 | – | 71.5 | > 100 | > 100 | > 100 | > 100 | – | > 100 | > 100 | – | > 100 | > 100 |
